# Data from US10316028B2, “Orexin receptor antagonists” (Heptares Therapeutics Limited, priority 2012, dated 2019).
# Target: T1, human Orexin-2 receptor (Homo sapiens, UniProt O43614)
# T1 construct: expressed in transfected cells; host or cells: HEK293 cells (transient transfection, Genejuice); membranes
# T1 sequence (O43614 1-444): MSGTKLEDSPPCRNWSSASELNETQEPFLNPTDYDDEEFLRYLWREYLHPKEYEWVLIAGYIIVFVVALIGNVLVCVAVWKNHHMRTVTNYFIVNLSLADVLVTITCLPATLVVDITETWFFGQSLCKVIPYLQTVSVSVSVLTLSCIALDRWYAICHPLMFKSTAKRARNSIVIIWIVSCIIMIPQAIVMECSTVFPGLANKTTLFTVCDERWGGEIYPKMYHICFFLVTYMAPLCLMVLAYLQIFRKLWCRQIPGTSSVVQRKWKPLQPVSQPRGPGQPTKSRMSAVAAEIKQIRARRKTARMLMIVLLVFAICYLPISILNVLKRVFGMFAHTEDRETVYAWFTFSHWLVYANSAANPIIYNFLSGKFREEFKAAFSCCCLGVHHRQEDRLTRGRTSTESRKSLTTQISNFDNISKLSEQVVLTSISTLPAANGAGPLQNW
# Assay: 3H-EMPA radioligand binding assay
# Conditions: 3H-EMPA displacement, membranes of HEK293 cells transfected with human Orexin-2 receptor; KI by Cheng-Prussoff; read-out: OX2 pKi ave (converted)
# How it was run: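 Membranes from HEK293 cells transiently transfected with human orexin-2 receptor cDNA, assayed with [3H]EMPA. Bound ligand collected on PEI-treated GF/B filters and counted by scintillation; IC50 from inhibition curves, Ki by Cheng-Prusoff.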
row,Structure (SMILES),Ki
1,"COc1ccc(N2C(=O)N(Cc3ncc(C)cc3C)c3ccccc3S2(=O)=O)cc1OC [Example 86, 4-[(3,5-Dimethylpyridin-2-yl)methyl]-2-(3,4-dimethoxyphenyl)-2H-1,2,4-benzothiadiazin-3(4H)-one 1,1-dioxide]",74.1 nM
2,"CSc1cccc(N2C(=O)N(Cc3ncccc3C)c3ccccc3S2(=O)=O)c1 [Example 87, 4-[(3-Methylpyridin-2-yl)methyl]-2-[3-(methylsulfanyl)phenyl]-2H-1,2,4-benzothiadiazin-3(4H)-one 1,1-dioxide]",35.5 nM
3,"COc1ccc(N2C(=O)N(Cc3ncccc3F)c3ccccc3S2(=O)=O)cc1OC [Example 88, 2-(3,4-Dimethoxyphenyl)-4-[(3-fluoropyridin-2-yl)methyl]-2H-1,2,4-benzothiadiazin-3(4H)-one 1,1-dioxide]",28.2 nM
4,"COc1ccc(N2C(=O)N(Cc3ncc(Br)cc3F)c3ccccc3S2(=O)=O)cc1OC [Example 89, 4-[(5-Bromo-3-fluoropyridin-2-yl)methyl]-2-(3,4-dimethoxyphenyl)-2H-1,2,4-benzothiadiazin-3(4H)-one 1,1-dioxide]",38.9 nM
5,"COc1ccc(N2C(=O)N(Cc3c(Cl)cncc3Cl)c3ccccc3S2(=O)=O)cc1OC [Example 90, 4-[(3,5-Dichloropyridin-4-yl)methyl]-2-(3,4-dimethoxyphenyl)-2H-1,2,4-benzothiadiazin-3(4H)-one 1,1-dioxide]",3.02 nM
6,"COc1ccc(N2C(=O)N(Cc3c(F)cccc3Cl)c3ccncc3S2(=O)=O)cc1OC [Example 91, 4-(2-Chloro-6-fluorobenzyl)-2-(3,4-dimethoxyphenyl)-2H-pyrido[4,3-e][1,2,4]thiadiazin-3(4H)-one 1,1-dioxide]",38 nM
7,"COc1ccc(N2C(=O)N(Cc3ccc(Cl)cc3F)c3ccncc3S2(=O)=O)cc1OC [Example 92, 4-(4-Chloro-2-fluorobenzyl)-2-(3,4-dimethoxyphenyl)-2H-pyrido[4,3-e][1,2,4]thiadiazin-3(4H)-one 1,1-dioxide]",741 nM
8,"COc1ccc(N2C(=O)N(Cc3c(F)cc(F)cc3F)c3ncccc3S2(=O)=O)cc1OC [Example 93, 2-(3,4-Dimethoxyphenyl)-4-(2,4,6-trifluorobenzyl)-2H-pyrido[2,3-e][1,2,4]thiadiazin-3(4H)-one 1,1-dioxide]",1.2 nM
9,"COc1ccc(N2C(=O)N(Cc3c(F)cccc3Cl)c3ncccc3S2(=O)=O)cc1OC [Example 94, 4-(2-Chloro-6-fluorobenzyl)-2-(3,4-dimethoxyphenyl)-2H-pyrido[2,3-e][1,2,4]thiadiazin-3(4H)-one 1,1-dioxide]",0.776 nM
10,"COc1cc(F)c(CN2C(=O)N(c3ccc(OC)c(OC)c3)S(=O)(=O)c3cccnc32)c(F)c1 [Example 95, 4-(2,6-Difluoro-4-methoxybenzyl)-2-(3,4-dimethoxyphenyl)-2H-pyrido[2,3-e][1,2,4]thiadiazin-3(4H)-one 1,1-dioxide]",0.129 nM
11,"COc1ccc(N2C(=O)N(Cc3ncc(F)cc3F)c3ncccc3S2(=O)=O)cc1OC [Example 96, 4-[(3,5-Difluoropyridin-2-yl)methyl]-2-(3,4-dimethoxyphenyl)-2H-pyrido[2,3-e][1,2,4]thiadiazin-3(4H)-one 1,1-dioxide]",13.2 nM
12,"COc1ccc(N2C(=O)N(Cc3c(F)cc(Cl)cc3F)c3ncccc3S2(=O)=O)cc1OC [Example 97, 4-(4-Chloro-2,6-difluorobenzyl)-2-(3,4-dimethoxyphenyl)-2H-pyrido[2,3-e][1,2,4]thiadiazin-3(4H)-one 1,1-dioxide]",0.661 nM
13,"COc1cc(N2C(=O)N(Cc3c(F)cc(F)cc3F)c3ncccc3S2(=O)=O)cc(OC)n1 [Example 98, 2-(2,6-Dimethoxypyridin-4-yl)-4-(2,4,6-trifluorobenzyl)-2H-pyrido[2,3-e][1,2,4]thiadiazin-3(4H)-one 1,1-dioxide]",1.48 nM
14,"COc1ccc(N2C(=O)N(Cc3c(F)cc(F)cc3F)c3ncccc3S2(=O)=O)nc1OC [Example 99, 2-(5,6-Dimethoxypyridin-2-yl)-4-(2,4,6-trifluorobenzyl)-2H-pyrido[2,3-e][1,2,4]thiadiazin-3(4H)-one 1,1-dioxide]",1.55 nM
